# Experimental data reported in patent US20250177473A1, “PEPTIDE REGULATORS OF METABOLISM” (Metabico, Inc., priority 2022, published 2025).
# Columns and labels:
# TNF-α = TNF-α mRNA expression in LPS-induced primary mouse fibroblasts; format: cell-based; conditions: LPS 0.5 μg/mL 24 h; DLSKEPSISRE 0.05 mg/mL or metformin 1 mM
# Procedure: (§1) The study was carried out in primary mouse fibroblasts. Isolation of fibroblasts was carried out with techniques described earlier (See Example 1). Fibroblasts were cultured for 3 days. The following stressors were applied separately: bacterial lipopolysaccharides (LPS), high glucose in the incubation medium, and serum-free incubation medium.
# (§2) LPS is a major outer surface membrane component that induces an inflammatory response in cells.
# (§3) Isolation of mRNA, synthesis of the first strand of cDNA, and RT-PCR were performed with techniques described earlier (See Example 1). Expression levels of IRS2, TNF-α, IL-6, and GSK3p (WNT-pathway) were analyzed.
# (§4) The study was carried out in primary mouse fibroblasts. Isolation of fibroblasts was carried out with techniques described earlier (See Example 1). Incubation of fibroblasts with 100 μM individual peptides and 0.5 μg/mL LPS was carried out for 24 hours. Each treatment group was represented in two biological replicates.
# (§5) Isolation of mRNA, synthesis of the first strand of cDNA, and RT-PCR were performed with techniques described earlier (See Example 1). Expression levels of RPL27, TNF-α, IL-6, and IRS2 genes were analyzed.
# IL-6 = IL-6 mRNA expression in LPS-induced primary mouse fibroblasts; format: cell-based; conditions: LPS 0.5 μg/mL 24 h; DLSKEPSISRE 0.05 mg/mL or metformin 1 mM
# Procedure: as §1, §2, §3, §4, §5
# [1] = tested on: C57BL/6 mice on a high-fat diet; assay: Chronic 28-day administration in HFD mice: bodyweight, water and feed consumption; format: in vivo, mouse; conditions: for Weekly food consumption / Weekly water consumption: Metformin 250 mg/kg p.o. daily
# Procedure: A standard laboratory rodent pellet SNIFF RI/M-H V1534-30 (58% carbohydrates, 9% fat, 33% protein, 306 kcal/100 g) was given ad libitum to the control animals. For HFD groups, the high-fat feed was used. For 1 kg of feed, 610 g of ground SNIFF feed and 360 g of melted pork lard were taken, water (˜250 ml, 60-70° C.), 10 g of sodium chloride, 30 g of sodium glutamate were added. The mixture was brewed to a dough consistency, and food granules were formed. Then the granules were dried at 60-70° C. for 10-12 hours. The finished food for consumption was transferred to the animal-keeping area. The prepared food was stored at 4° C. for no more than 7 days. The approximate energy value of the HFD feed was 516 kcal/100 g (45% fat, 35% carbohydrates, 20% protein).
# The metabolic syndrome was modeled by keeping animals on a HFD for 16 weeks. The control group was kept on a standard diet (STD) during this period. Animals had free access to feed and water located in the cage lid.
# (§6) Groups of 10 animals were formed from the existing groups from Stage 2, with similar mean body weight (Table 6). The animals' bodyweight was monitored three times a week, water, and feed consumption—weekly. After the last treatment, the animals were euthanized for necropsy and their blood collected. The internal organs were examined for the presence of macro damage and weighed. The adipose tissue surrounding the epididymis was evaluated as a marker of obesity in animals. For histological examination, samples of adipose tissue and liver tissue were fixed in 10% formalin solution for further histological analysis.
# The administration volume was 10 ml/kg for drugs administered i.p., 6 μl/animal for i.n. administration and 5 ml/kg for drugs administered p.o.
# The animals were weighed weekly on weeks 1-16 of the experiment (1-120 days of the study), during the administration of the tested substances (121-148 days)—three times a week. The bodyweight of a hungry animal immediately before necropsy was taken to calculate the percentage of organ weight to body weight.
# Each animal's food and water consumption was evaluated weekly by weighing the grid with food or a bottle of water before and after 24 hours.
# [2] = tested on: C57BL/6 mice on a high-fat diet; assay: Blood serum glucose, HOMA-IR and TNF-α after chronic administration in HFD mice; format: in vivo, mouse; conditions: metformin 250 mg/kg p.o.
# Procedure: as §6
# At the end of the study, the animals were euthanized. […]
# Blood serum was analyzed for glucose concentration using the Randox GB reagent kit on an automatic biochemical analyzer Sapphire-400 (Tokyo Boeki LTD, Japan), following the manufacturer's instructions.
# Insulin concentration in blood serum samples was measured by enzyme immunoassay using a standard commercial kit, following the manufacturer's instructions. […] Based on the obtained data on the concentration of insulin and glucose measured in animals before necropsy, the derived parameter of insulin resistance HOMA-IR was calculated using the formula: […]
# The concentration of proinflammatory cytokine TNFa and IL1 was measured in blood serum samples by ELISA using standard commercial kits, following the manufacturer's instructions. […]
# [3] = tested on: C57BL/6 mice on a high-fat diet; assay: Visceral fat weight and adipocyte histology after chronic administration in HFD mice; format: in vivo, mouse; conditions: four weeks
# Procedure: as §6
# After necropsy, the following internal organs were weighed: adrenal glands, kidneys, liver, pancreas, heart, spleen, and testicles.
# During necropsy, the body's external state, internal surfaces, the cranial cavity, chest, abdominal and pelvic cavities with organs and tissues located in them, the neck with organs and tissues, the skeleton, and the musculoskeletal system were examined. The organs and tissues were fixed in 10% formalin. […]
# Microscopic analysis was performed using a DMLA Leica transmitted light microscope (Germany), a Photometrics Cool SNAP cf video camera (USA), and Mekos software (Russia). […] One hundred adipocytes were measured on sections of the visceral fat samples in 15-20 random fields of view.
# [4] = tested on: C57BL/6 mice on a high-fat diet; assay: Tolerability observations in HFD mice study; format: in vivo, mouse; conditions: metformin 250 mg/kg p.o.
# Procedure: as §6
# During necropsy, the body's external state, internal surfaces, the cranial cavity, chest, abdominal and pelvic cavities with organs and tissues located in them, the neck with organs and tissues, the skeleton, and the musculoskeletal system were examined. The organs and tissues were fixed in 10% formalin. Liver and adipose tissue samples were weighed and stored in 10% formalin for subsequent histological analysis.
smiles,measurement,setting,value
CN(C)C(=N)N=C(N)N [Metformin],LPS-induced expression of TNF-α,TNF-α,similarly
same,LPS-induced expression of IL-6,IL-6,similarly
same,Bodyweight during the period the test substance administration,"[1]; Metformin 250 mg/kg p.o. daily from day 122, day 122",34.3 ± 0.7 grams
same,Bodyweight during the period the test substance administration,"[1]; Metformin 250 mg/kg p.o. daily from day 122, day 124",33.9 ± 0.7 grams
same,Bodyweight during the period the test substance administration,"[1]; Metformin 250 mg/kg p.o. daily from day 122, day 126",33.4 ± 0.8 grams
same,Bodyweight during the period the test substance administration,"[1]; Metformin 250 mg/kg p.o. daily from day 122, day 129",32.9 ± 0.7 grams
same,Bodyweight during the period the test substance administration,"[1]; Metformin 250 mg/kg p.o. daily from day 122, day 131",33.1 ± 0.7 grams
same,Bodyweight during the period the test substance administration,"[1]; Metformin 250 mg/kg p.o. daily from day 122, day 133",33.1 ± 0.8 grams
same,Bodyweight during the period the test substance administration,"[1]; Metformin 250 mg/kg p.o. daily from day 122, day 136",32.4 ± 1.1 grams
same,Bodyweight during the period the test substance administration,"[1]; Metformin 250 mg/kg p.o. daily from day 122, day 138",32.2 ± 1.1 grams
same,Bodyweight during the period the test substance administration,"[1]; Metformin 250 mg/kg p.o. daily from day 122, day 141",32.9 ± 0.9 grams
same,Bodyweight during the period the test substance administration,"[1]; Metformin 250 mg/kg p.o. daily from day 122, day 144",33.2 ± 1.0 grams
same,Bodyweight during the period the test substance administration,"[1]; Metformin 250 mg/kg p.o. daily from day 122, day 147",33.5 ± 1.0 grams
same,Weekly food consumption,[1]; Week 1,458.4 ± 55.4 kcal/kg/day
same,Weekly water consumption,[1]; Week 1,0.1095 ± 0.0109 mL/min/kg
same,Weekly food consumption,[1]; Week 2,758.4 ± 51.4 kcal/kg/day
same,Weekly water consumption,[1]; Week 2,0.1199 ± 0.00944 mL/min/kg
same,Weekly food consumption,[1]; Week 3,567.6 ± 21.3 kcal/kg/day
same,Weekly water consumption,[1]; Week 3,0.1505 ± 0.0169 mL/min/kg
same,Weekly food consumption,[1]; Week 4,709.4 ± 22.7 kcal/kg/day
same,Weekly water consumption,[1]; Week 4,0.182 ± 0.0183 mL/min/kg
same,decrease in weight compared to values before substance administration,"[1]; Metformin p.o., chronic 4-week",7.6%
same,Animal body weight before the administration of the tested substances,"[1]; day 112, baseline, group 5 Metformin p.o.",36.94 ± 0.954 grams
same,loss of excess body weight (normalized to HFD control),"[1]; metformin chronic administration, compared with EPSI i.n.",comparable
same,glucose concentration in the blood vs HFD control group,"[2]; 4 weeks, EPSI 5 mg/kg i.p. and i.n.",decrease
same,TNF-α concentration in blood serum vs HFD control,"[2]; four weeks, EPSI 5 mg/kg i.n.",reduced
same,decrease in average linear size of visceral fat adipocytes compared to HFD control,[3]; Metformin 250 mg/kg p.o.,31%
same,visceral fat (adipose tissue surrounding the epididymis) weight,"[3]; EPSI 5 mg/kg i.p. and i.n., metformin 250 mg/kg p.o., vs HFD control",statistically significant decrease
same,death of animals after administration,[4],2 animals
same,deviations in the state of health observed after the first injection,[4],"hunching, tremor, weight loss"
